Each compound was assayed against T1, chimeric human H3 receptor (Homo sapiens, UniProt Q9Y5N1, E19D) (assay: Chimeric human H3 receptor screening GTP binding assay (inhibition of histamine-stimulated GTP-gamma35S binding, Example 8)). Conditions: 1 h; Table II, "+" in the column headed Ki; assay of Example 8; read-out: percent inhibition of agonist-induced GTP-gammaS binding to H3.
T1 construct: made in house; host or cells: Sf9 insect cells (baculovirus infection); P2 membrane preparation
Format: biochemical
Method in brief: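 Sf9 membranes co-expressing the chimeric receptor and a heterotrimeric G-protein (35 μg protein) in Tris pH 7.4 buffer with 10 μM GDP; compound at 4 μM plus 1 μM histamine, 125 pM GTP-gamma35S, 60 min at room temperature. Filter-bound radioactivity read; non-specific binding defined with 10 uM GTP-gammaS; percent inhibition of histamine signal.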

T1 sequence (Q9Y5N1 with tags, fused parts or gaps E19D): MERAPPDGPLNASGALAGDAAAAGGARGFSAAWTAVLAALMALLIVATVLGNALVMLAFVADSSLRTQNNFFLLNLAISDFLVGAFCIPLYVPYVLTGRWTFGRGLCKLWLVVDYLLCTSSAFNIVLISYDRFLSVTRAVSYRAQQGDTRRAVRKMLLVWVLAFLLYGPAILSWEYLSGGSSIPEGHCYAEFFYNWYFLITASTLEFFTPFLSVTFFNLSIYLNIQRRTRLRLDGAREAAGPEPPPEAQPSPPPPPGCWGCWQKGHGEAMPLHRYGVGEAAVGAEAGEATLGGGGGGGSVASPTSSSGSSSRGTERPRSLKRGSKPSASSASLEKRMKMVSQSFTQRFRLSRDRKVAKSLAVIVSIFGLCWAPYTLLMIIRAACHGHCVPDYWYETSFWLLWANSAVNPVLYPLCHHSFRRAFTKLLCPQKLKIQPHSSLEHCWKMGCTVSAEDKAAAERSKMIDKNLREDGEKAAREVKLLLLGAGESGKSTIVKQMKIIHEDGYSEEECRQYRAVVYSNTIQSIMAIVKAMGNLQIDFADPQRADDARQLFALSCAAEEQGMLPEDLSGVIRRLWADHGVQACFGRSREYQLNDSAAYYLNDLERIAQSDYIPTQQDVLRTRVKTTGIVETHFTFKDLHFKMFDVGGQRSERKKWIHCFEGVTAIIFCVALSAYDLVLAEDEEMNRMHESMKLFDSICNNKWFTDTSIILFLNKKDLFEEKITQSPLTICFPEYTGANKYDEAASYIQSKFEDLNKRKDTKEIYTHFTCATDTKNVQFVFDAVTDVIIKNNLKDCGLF

SMILES	inhibition at 4 µM
O=C(Cc1ccccc1C(F)(F)F)N1CCN(CC(=O)N2CCN(C3CCC3)CC2)CC1 [Compound 622, 1-cyclobutyl-4-[(4-{[2-(trifluoromethyl)phenyl]acetyl}piperazin-1-yl)acetyl]piperazine]	> 90%
O=C(Cc1cccc(C(F)(F)F)c1F)N1CCN(CC(=O)N2CCN(C3CCC3)CC2)CC1 [Compound 623, 1-cyclobutyl-4-[(4-{[2-fluoro-3-(trifluoromethyl)phenyl]acetyl}piperazin-1-yl)acetyl]piperazine]	> 90%
Cc1onc(-c2c(Cl)cccc2Cl)c1C(=O)N1CCN(CC(=O)N2CCN(C3CCC3)CC2)CC1 [Compound 624, 1-cyclobutyl-4-[(4-{[3-(2,6-dichlorophenyl)-5-methylisoxazol-4-yl]carbonyl}piperazin-1-yl)acetyl]piperazine]	> 90%
CSc1sc(C(=O)N2CCN(CC(=O)N3CCN(C4CCC4)CC3)CC2)c2c1C=CCC2 [Compound 625, 1-cyclobutyl-4-[(4-{[3-(methylthio)-6,7-dihydro-2-benzothien-1-yl]carbonyl}piperazin-1-yl)acetyl]piperazine]	> 90%
O=C(Cc1cccc(OC(F)(F)F)c1)N1CCN(CC(=O)N2CCN(C3CCC3)CC2)CC1 [Compound 626, 1-cyclobutyl-4-[(4-{[3-(trifluoromethoxy)phenyl]acetyl}piperazin-1-yl)acetyl]piperazine]	> 90%
O=C(Cc1cccc(C(F)(F)F)c1)N1CCN(CC(=O)N2CCN(C3CCC3)CC2)CC1 [Compound 627, 1-cyclobutyl-4-[(4-{[3-(trifluoromethyl)phenyl]acetyl}piperazin-1-yl)acetyl]piperazine]	> 90%
CSc1ccc(CC(=O)N2CCN(CC(=O)N3CCN(C4CCC4)CC3)CC2)cc1 [Compound 628, 1-cyclobutyl-4-[(4-{[4-(methylthio)phenyl]acetyl}piperazin-1-yl)acetyl]piperazine]	> 90%
O=C(COc1ccc(OC(F)(F)F)cc1)N1CCN(CC(=O)N2CCN(C3CCC3)CC2)CC1 [Compound 629, 1-cyclobutyl-4-[(4-{[4-(trifluoromethoxy)phenoxy]acetyl}piperazin-1-yl)acetyl]piperazine]	> 90%
O=C(Cc1ccc(OC(F)(F)F)cc1)N1CCN(CC(=O)N2CCN(C3CCC3)CC2)CC1 [Compound 630, 1-cyclobutyl-4-[(4-{[4-(trifluoromethoxy)phenyl]acetyl}piperazin-1-yl)acetyl]piperazine]	> 90%
O=C(Cc1ccc(C(F)(F)F)cc1)N1CCN(CC(=O)N2CCN(C3CCC3)CC2)CC1 [Compound 631, 1-cyclobutyl-4-[(4-{[4-(trifluoromethyl)phenyl]acetyl}piperazin-1-yl)acetyl]piperazine]	> 90%
O=C(CN1CCN(C(=O)c2cnccc2C(F)(F)F)CC1)N1CCN(C2CCC2)CC1 [Compound 632, 1-cyclobutyl-4-[(4-{[4-(trifluoromethyl)pyridin-3-yl]carbonyl}piperazin-1-yl)acetyl]piperazine]	> 90%
CSc1ccc(C(=O)N2CCN(CC(=O)N3CCN(C4CCC4)CC3)CC2)s1 [Compound 633, 1-cyclobutyl-4-[(4-{[5-(methylthio)-2-thienyl]carbonyl}piperazin-1-yl)acetyl]piperazine]	> 90%
O=C(CN1CCN(C(=O)c2cncc(C#Cc3ccccc3)c2)CC1)N1CCN(C2CCC2)CC1 [Compound 634, 1-cyclobutyl-4-[(4-{[5-(phenylethynyl)pyridin-3-yl]carbonyl}piperazin-1-yl)acetyl]piperazine]	> 90%
O=C(CN1CCN(C(=O)c2ccc(-n3cccc3)nc2)CC1)N1CCN(C2CCC2)CC1 [Compound 635, 1-cyclobutyl-4-[(4-{[6-(1H-pyrrol-1-yl)pyridin-3-yl]carbonyl}piperazin-1-yl)acetyl]piperazine]	> 90%
O=C(CN1CCN(C(=O)c2ccc(OCC(F)(F)F)nc2)CC1)N1CCN(C2CCC2)CC1 [Compound 636, 1-cyclobutyl-4-[(4-{[6-(2,2,2-trifluoroethoxy)pyridin-3-yl]carbonyl}piperazin-1-yl)acetyl]piperazine]	> 90%
CC(Oc1ccc(OC(F)(F)F)cc1)C(=O)N1CCN(CC(=O)N2CCN(C3CCC3)CC2)CC1 (centres unmarked) [Compound 637, 1-cyclobutyl-4-[(4-{2-[4-(trifluoromethoxy)phenoxy]propanoyl}piperazin-1-yl)acetyl]piperazine]	> 90%
O=C(CN1CCN(C(=O)c2ccncc2)CC1)N1CCN(C2CCC2)CC1 [Compound 655, 1-cyclobutyl-4-[(4-isonicotinoylpiperazin-1-yl)acetyl]piperazine]	> 90%
COc1ccc(OC)c(Sc2ncccc2C(=O)N2CCN(CC(=O)N3CCN(C4CCC4)CC3)CC2)c1 [Compound 659, 1-cyclobutyl-4-{[4-({2-[(2,5-dimethoxyphenyl)thio]pyridin-3-yl}carbonyl)piperazin-1-yl]acetyl}piperazine]	> 90%
Cc1nc(-c2ccc(C(F)(F)F)cc2)sc1C(=O)N1CCN(CC(=O)N2CCN(C3CCC3)CC2)CC1 [Compound 660, 1-cyclobutyl-4-{[4-({4-methyl-2-[4-(trifluoromethyl)phenyl]-1,3-thiazol-5-yl}carbonyl)piperazin-1-yl]acetyl}piperazine]	> 90%

SMILES	inhibition at 4 µM
Cn1nc(C(F)(F)F)cc1-c1ccc(C(=O)N2CCN(CC(=O)N3CCN(C4CCC4)CC3)CC2)s1 [Compound 661, 1-cyclobutyl-4-{[4-({5-[1-methyl-3-(trifluoromethyl)-1H-pyrazol-5-yl]-2-thienyl}carbonyl)piperazin-1-yl]acetyl}piperazine]	> 90%
O=C(CN1CCN(C(=O)c2cccc3ccccc23)CC1)N1CCN(C2CCC2)CC1 [Compound 662, 1-cyclobutyl-4-{[4-(1-naphthoyl)piperazin-1-yl]acetyl}piperazine]	> 90%
O=C(Cc1cccc2ccccc12)N1CCN(CC(=O)N2CCN(C3CCC3)CC2)CC1 [Compound 663, 1-cyclobutyl-4-{[4-(1-naphthylacetyl)piperazin-1-yl]acetyl}piperazine]	> 90%
O=C(CN1CCN(C(=O)c2cccc(Cl)c2Cl)CC1)N1CCN(C2CCC2)CC1 [Compound 664, 1-cyclobutyl-4-{[4-(2,3-dichlorobenzoyl)piperazin-1-yl]acetyl}piperazine]	> 90%
O=C(CN1CCN(C(=O)C2COc3ccccc3O2)CC1)N1CCN(C2CCC2)CC1 (centres unmarked) [Compound 668, 1-cyclobutyl-4-{[4-(2,3-dihydro-1,4-benzodioxin-2-ylcarbonyl)piperazin-1-yl]acetyl}piperazine]	> 90%
O=C(CN1CCN(C(=O)c2ccc3c(c2)CCO3)CC1)N1CCN(C2CCC2)CC1 [Compound 669, 1-cyclobutyl-4-{[4-(2,3-dihydro-1-benzofuran-5-ylcarbonyl)piperazin-1-yl]acetyl}piperazine]	> 90%
COc1cccc(C(=O)N2CCN(CC(=O)N3CCN(C4CCC4)CC3)CC2)c1OC [Compound 670, 1-cyclobutyl-4-{[4-(2,3-dimethoxybenzoyl)piperazin-1-yl]acetyl}piperazine]	> 90%
Cc1cccc(C(=O)N2CCN(CC(=O)N3CCN(C4CCC4)CC3)CC2)c1C [Compound 671, 1-cyclobutyl-4-{[4-(2,3-dimethylbenzoyl)piperazin-1-yl]acetyl}piperazine]	> 90%
O=C(CN1CCN(C(=O)c2ccc(Cl)cc2Cl)CC1)N1CCN(C2CCC2)CC1 [Compound 674, 1-cyclobutyl-4-{[4-(2,4-dichlorobenzoyl)piperazin-1-yl]acetyl}piperazine]	> 90%
COc1ccc(C(=O)N2CCN(CC(=O)N3CCN(C4CCC4)CC3)CC2)c(OC)c1 [Compound 677, 1-cyclobutyl-4-{[4-(2,4-dimethoxybenzoyl)piperazin-1-yl]acetyl}piperazine]	> 90%
Cc1ccc(C(=O)N2CCN(CC(=O)N3CCN(C4CCC4)CC3)CC2)c(C)c1 [Compound 679, 1-cyclobutyl-4-{[4-(2,4-dimethylbenzoyl)piperazin-1-yl]acetyl}piperazine]	> 90%
O=C(CN1CCN(C(=O)c2cc(Cl)ccc2Cl)CC1)N1CCN(C2CCC2)CC1 [Compound 681, 1-cyclobutyl-4-{[4-(2,5-dichlorobenzoyl)piperazin-1-yl]acetyl}piperazine]	> 90%
O=C(CN1CCN(C(=O)c2cc(F)ccc2F)CC1)N1CCN(C2CCC2)CC1 [Compound 684, 1-cyclobutyl-4-{[4-(2,5-difluorobenzoyl)piperazin-1-yl]acetyl}piperazine]	> 90%
COc1ccc(OC)c(C(=O)N2CCN(CC(=O)N3CCN(C4CCC4)CC3)CC2)c1 [Compound 686, 1-cyclobutyl-4-{[4-(2,5-dimethoxybenzoyl)piperazin-1-yl]acetyl}piperazine]	> 90%
Cc1cc(C(=O)N2CCN(CC(=O)N3CCN(C4CCC4)CC3)CC2)c(C)o1 [Compound 688, 1-cyclobutyl-4-{[4-(2,5-dimethyl-3-furoyl)piperazin-1-yl]acetyl}piperazine]	> 90%
Cc1ccc(C)c(C(=O)N2CCN(CC(=O)N3CCN(C4CCC4)CC3)CC2)c1 [Compound 689, 1-cyclobutyl-4-{[4-(2,5-dimethylbenzoyl)piperazin-1-yl]acetyl}piperazine]	> 90%
O=C(CN1CCN(C(=O)c2c(Cl)cccc2Cl)CC1)N1CCN(C2CCC2)CC1 [Compound 691]	> 90%
O=C(CN1CCN(C(=O)c2cc(Cl)nc(Cl)c2)CC1)N1CCN(C2CCC2)CC1 [Compound 692]	> 90%
O=C(CN1CCN(C(=O)c2c(F)cccc2F)CC1)N1CCN(C2CCC2)CC1 [Compound 693, 1-cyclobutyl-4-{[4-(2,6-difluorobenzoyl)piperazin-1-yl]acetyl}piperazine]	> 90%

From patent publication US7851474B2, “Dipiperazinyl ketones and related analogues” (Neurogen Corporation, priority 2005, dated 2010)
